Test results from patent publication US12029715B2, “Precursor compounds for providing retinoids of the vitamin A5 pathway and uses thereof” (UNIVERSITY OF DEBRECEN, priority 2015, dated 2024).
Entries after “also recorded” stand apart in the source; their conditions may differ. Values belong to the compound of their own block, whether it stands above or below them.

How the values were obtained:
[1] = test system: human oligodendrocytes cell cultures; test: Metabolic conversion in human oligodendrocytes cell culture (HPLC-MS); format: in vitro ADME; conditions: 10^−6M; for 9CDHRA levels in cells after treatment (metabolism / accumulation): n=3
Experimental: (§1) In a slight variant of the method, after reaching confluency of 80% cells were treated with 9CDHROL, 9CDH-retinyl ester (acetate, 9CDHROL-ES), 9CDHRA, 9CDH-retinoyl ester, (ethyl ester, 9CDHRA-ES), ATROL, 9CDHBC, 9CBC and ATBC at a concentration of 10^−6 M or ethanol at corresponding concentration was used as control vehicle treatment. Cells were harvested 18 hours later, centrifuged, weighted, frozen in liquid nitrogen and stored at −80° C. until analyses.
(§2) High performance liquid chromatography mass spectrometry (LC-MS) was carried out as described in Example 4.
9CDHRA levels including standard deviation in human oligodendrocytes cultures were assessed using HPLC-MS analysis after control treatment using ethanol (CTRL), as well as ATROL treatment (ATROL), 9CBC treatments (9CBC), ATBC treatments (ATBC), 9CDHBC treatment (9CDHBC), 9CDHROL treatments (9CDHROL), 9CDHROL-ester treatments (9CDHROL-ES), 9CDHRA treatments (9CDHRA) or 9CDHRA-ester treatments (9CDHRA-ES), each with 10^−6M concentration and n=3 (FIG. 14D).

[2] = test system: oligodendrocytes cell line 158N; test: Metabolic conversion in mouse oligodendrocytes cell culture (LC-MS); format: in vitro ADME; conditions: for 9CDHRA levels in cells after treatment: 10^−5M for 18 h; for 9CDHROL levels in cells after treatment: 10^−6 M, 18 hours; for conversion to 9CDHRA: data not shown; for 9CBC in cells after treatment: 411 nm detection, retention time 26.1 min; for 9CDHBC peak in cells after treatment: UV detection at 366 nm, retention time 25.1 min
Experimental: Normal immortalized oligodendrocytes cell line 158N was cultured as previously reported (Feutz et al., 2001). Expediently, cells were cultured in supplemented with 5% calf serum (Invitrogen, France). When cells attained 70% of confluency they were treated with 10^−2 M ethanol solution of one of the following compounds: 9CDHROL, 9CDHROL-acetate, 9CDHRA-ethyl ester. 9CDHRA and ethanol as controls, vehicle treatment. 18 h after treatment cells were collected in amber Eppendorf tubes and stored at −80° C. until analyses. Treatments and cell collection were carried out in light limited conditions to avoid photolysis of retinoids.
as §1, §2

[3] = test system: differentiating monocyte-derived human dendritic cells; test: DNA microarray in differentiating monocyte-derived dendritic cells; format: cell-based; conditions: for expression of genes that are direct targets of RXR permissive heterodimers (LXR-RXR, PPAR-RXR) and RAR-RXR: 9CDHRA 10 μM, 9CRA 1 μM, GW3965 1 μM, RSG 1 μM, GW1516 1 μM, AM580 100 nM
Experimental: The generation and transcriptional analysis of differentiating DCs were performed as described previously [Szeles L et al. 2010]. Microarray data were deposited into the Gene Expression Omnibus database under accession no. GSE48573.
The generation and analysis of differentiating DCs were performed as described previously [Szeles L et al. 2010] with minor modifications. Briefly, human monocytes were isolated from healthy volunteer's buffy coat, obtained with a Regional Ethical Board permit from the Regional Blood Bank and isolated by Ficoll gradient centrifugation followed by immunomagnetic cell separation, and were cultured in the presence of GM-CSF and IL-4. Differentiating DCs were stimulated 18 h after […] by various agonists for 12 h. The ligands were used in the following concentrations: 10 μM (R)-9CDHRA, 10 μM (S)-9CDHRA, 1 μM 9cisRA, 100 nM LG100268, 1 μM GW3965, 1 μM Rosiglitazone (RSG), 1 μM GW1516, 100 nM AM580. Experiments were performed in biological triplicates. Samples were processed and hybridized to Human Genome U133 Plus 2.0 Arrays. Data were analysed using to GeneSpring 12.6.1 software. In detail, normalization was performed using RMA summarization algorithm. […] Microarray data were deposited into the Gene Expression Omnibus database under accession no. GSE48573.

[4] = test system: Rbp1−/−, Rxrγ−/− and WT mice; test: Forced swim test after acute treatment; format: in vivo, mouse; conditions: Rbp1−/− mice, acute i.p. treatment 5-6 h before the test
Experimental: (§3) The forced swim paradigm was carried out between 1 pm and 4 pm in a 3-litre glass beaker half-filled with water at 22-23° C. (the water depth was 17 cm). All mice were tested only once in this task. To this end, each mouse was lowered gently into the water and the time of immobility was scored during a 6-minute testing period. The mouse was judged immobile when it floated in an upright position and made only small movements to keep its head above the water. After 6 min, the mouse was taken out of the water, left to dry under a red light lamp and returned to its home cage. The immobility scores of each animal were used as an index of despair behavior.
(§4) Vehicle treatments consisted of 3% ethanol and 3% DMSO solution in sunflower oil. Treatments were administered by intraperitoneal injections at volume/weight ratio 3 ml/kg between 8-10 am and 5-6 h before the test as previously validated (Wietrzych-Schindler M, 2011).
as §3, with “paradigm (Dalvi and Lucki, 1999)” for “paradigm”, “2-litre” for “3-litre”

Rbp1−/− and Rxrγ−/− mice = test: Y-maze spontaneous alternation; format: in vivo, mouse; conditions: 5-6 hours prior to testing
Experimental: The Y-maze apparatus and the procedure were as previously described (Wietrzych et al., 2005). Briefly, each mouse was placed at the end of one arm and allowed to explore freely the apparatus for 5 min, with the experimenter out of the animal's sight. Spontaneous alternation performance (SAP) was assessed visually by scoring the pattern of entries into each arm and expressed as a percentage of total number of entries, discounting the first two visits. Total entries were scored as an index of ambulatory activity in the Y-maze, but none of tested mice had to be excluded due to low locomotor performance (score below 9 entries).
as §4

[5] = Rbp1−/− mice, ATRA 5 mg/kg, UVI2108 1 mg/kg, MA 5 mg/kg, DHA 1 mg/kg, TTNPB 5 mg/kg

production of 9CDHRA by the ester form compared with 9CDHROL and 9CDHRA, respectively [1]: higher production
9CDHRA levels in cells after treatment [2]: strong increase
9CDHROL levels in cells after treatment [2]: excellent/strongly
conversion to 9CDHRA [2]: excellent precursor
SMILES: CC(=O)OCC[C@@H](C)/C=C/C=C(C)\C=C\C1=C(C)CCCC1(C)C (stereo in doubt) [9CDHROL-ES, (R)-9-cis-13,14-dihydroretinyl acetate]

9CDHRA levels in cells after treatment (metabolism / accumulation) [1]: not converted to 9CDHRA
ATROL levels in cells after treatment ([2]; 10^−6M): a low conversion or induced increase
9CBC in cells after treatment [2]: could detect 9CBC
9CDHBC peak in cells after treatment [2]: higher peak was observed
conversion to 9CDHRA [2]: not converted to 9CDHRA
SMILES: CC1=C(/C=C/C(C)=C\C=C\C(C)=C\C=C\C=C(C)\C=C\C=C(C)\C=C\C2=C(C)CCCC2(C)C)C(C)(C)CCC1 [9CBC, 9-cis-β,β-Carotene]
9CDHROL levels in cells after treatment [2]: no or just a weak increase; also recorded: weak significant increase

production of 9CDHRA by the ester form compared with 9CDHROL and 9CDHRA, respectively [1]: higher production
9CDHRA levels in cells after treatment (metabolism / accumulation) [1]: strong accumulation
9CDHRA levels in cells after treatment [2]: very strong increase
SMILES: CCOC(=O)C[C@@H](C)/C=C/C=C(C)\C=C\C1=C(C)CCCC1(C)C [9CDHRA-ES, Ethyl (9Z,13R)-13,14-Dihydroretinoate]

SMILES: CC1=C(/C=C/C(C)=C\C=C\C(C)=C\C(=O)O)C(C)(C)CCC1 [9CRA, 9-cis-retinoic acid, reference compound]
expression of genes induced by AM580 (RAR-RXR target genes) [3]: also induced
number of transcripts regulated ([3]; 10 μM (R)-9CDHRA, 1 μM 9CRA, 12 h, FC>2): 450
expression of genes that are direct targets of RXR permissive heterodimers (LXR-RXR, PPAR-RXR) and RAR-RXR ([3]; LG268 100 nM): induce the expression of many genes

SMILES: CC1(C)CCC(C)(C)c2cc(C(=O)Nc3ccc(C(=O)O)cc3)ccc21 [AM580, reference compound]
expression of genes that are direct targets of RXR permissive heterodimers (LXR-RXR, PPAR-RXR) and RAR-RXR ([3]; LG268 100 nM): also induced

9CDHRA levels in cells after treatment (metabolism / accumulation) [1]: not converted to 9CDHRA
9CBC in cells after treatment [2]: no 9CBC could be detected
9CDHBC peak in cells after treatment [2]: not be conclusively detected
conversion to 9CDHRA [2]: not converted to 9CDHRA
ATBC level in cells after ATBC-treatment ([2]; detectable at 411 nm, eluting at 27.2 min): present in very high levels
SMILES: CC1=C(/C=C/C(C)=C/C=C/C(C)=C/C=C/C=C(C)/C=C/C=C(C)/C=C/C2=C(C)CCCC2(C)C)C(C)(C)CCC1 [ATBC, all-trans-β,β-carotene, reference compound]
9CDHROL levels in cells after treatment [2]: did not display any increase; also recorded: did not result in any increase

SMILES: Cc1cc(SCc2sc(-c3ccc(C(F)(F)F)cc3)nc2C)ccc1OCC(=O)O [GW1516, reference compound]
expression of genes that are direct targets of RXR permissive heterodimers (LXR-RXR, PPAR-RXR) and RAR-RXR ([3]; LG268 100 nM): also induced

SMILES: O=C(O)Cc1cccc(OCCCN(Cc2cccc(C(F)(F)F)c2Cl)CC(c2ccccc2)c2ccccc2)c1 [GW3965, reference compound]
expression of genes that are direct targets of RXR permissive heterodimers (LXR-RXR, PPAR-RXR) and RAR-RXR ([3]; LG268 100 nM): also induced

SMILES: Cc1cc2c(cc1C1(c3ccc(C(=O)O)cn3)CC1)C(C)(C)CCC2(C)C [LG268, reference compound]
expression of genes that are direct targets of RXR permissive heterodimers (LXR-RXR, PPAR-RXR) and RAR-RXR ([3]; LG268 100 nM): induce the expression of many genes
transcripts of the set common to (R)-9CDHRA and 9CRA also regulated by LG268 ([3]; LG268 100 nM): 61

SMILES: C/C(=C\c1ccc(C(=O)O)cc1)c1ccc2c(c1)C(C)(C)CCC2(C)C [TTNPB]
immobility (despair) in the forced swim test [4]: did not display such effects
working memory in spontaneous alternation in the Y-maze (Rbp1−/− and Rxrγ−/− mice; [5]): not

SMILES: COC(C)(C)CCCC(C)C/C=C/C(C)=C/C(=O)O (stereo not shown) [methoprene acid]
immobility (despair) in the forced swim test [4]: normalized increased despair
immobility (despair) in the forced swim test ([4]; listed as MA): normalised
working memory in spontaneous alternation in the Y-maze (Rbp1−/− and Rxrγ−/− mice; [5]): pro-mnemonic effects
working memory in spontaneous alternation in the Y-maze (Rbp1−/− and Rxrγ−/− mice; Rbp1−/− mice, ATRA 5 mg/kg, UVI2108 1 mg/kg, MA 5 mg/kg, DHA 1 mg/kg, TTNPB 5 mg/kg, listed as MA): normalised
working memory in spontaneous alternation in the Y-maze (Rbp1−/− and Rxrγ−/− mice; Rxrγ−/− mice, same doses): not
